According to patent US7718768B2, “Biologically active peptide [sequence]” (CMS Peptides Patent Holding Company Limited, priority 2001, dated 2010):
Marks after values point to notes of the source that are not given here. No end group written: not given here.

What was measured:
T lymphocyte [1] = assay: T lymphocyte transformation test (ConA, MTT) on spleen cells of treated mice; format: in vivo, BALB/c mice; set-up: key: OD of assay wells divided by OD of control wells; conditions: peptide 500 μg/kg/day i.p. 15 days; IFN-γ and IL-2 groups 3×10^5 IU/kg/day; X ± SD
Method: (§1) The above substances were all dissolved in 0.5 ml saline and injected intraperitoneal (i.p.) for 15 continuous days, once per day.
(§2) Ten mice per group. The day after the last test substance administration, the mice were sacrificed by cervical dislocation. The spleen was isolated aseptically and manually dispersed in cold D-Hank's solution using an injection needle. The dispersed cell suspension was further sieved through a 100 gauge 150 μm diameter stainless steel sieve. After centrifugation at 200 g for 10 minutes, the supernatant was discarded. The cell pellet was re-suspended in 10 volume of Tris-NH4Cl buffer and then kept standing still for 10 minutes at room temperature. The suspended cells were collected by centrifugation at 150 g for 10 minutes. The cells were washed 2-4 times with cold D-Hank's solution by re-suspending and collecting by centrifugation with condition as described above. The washed cells were then diluted to the desired cell densities by RPMI-1640 culture medium, containing 10% fetal bovine serum.
(§3) Spleen cells of density 1×10^6/ml were placed onto a 96 wells cell culture plate, 100 μl/well, three parallel wells each of the assay sample and control sample per mouse. To the assay wells, 100 μl/well ConA of 100 μg/ml in RPMI-1640 was added, and 100 μl/well plain RPMI-1640 was used for the controls. The cells were incubated for 66 hrs at 37° C., 5% CO2. The cells were then pelleted by centrifugation at 150 g for 10 minutes.
50 μl/well MTT of 1 mg/ml in RPMI-1640 was added to the cell pellet and the cells re-suspended by shaking for 2 minutes. The incubation was continued for 4 hours. The supernatant was discarded after centrifugation at 150 g for 10 minutes. 120 μl 40 mM HCl-2-propanol was added to the cell pellet and shaken for 3 minutes. to obtain OD570nm of each well referenced at 630 nm. An ELISA reader was used
Each mouse formed three assay wells and three control wells. The Stimulation Index (SI) of each mouse was obtained by first deriving the average OD of the three parallel wells, then dividing the value of the assay wells by the control wells.

NK cell = NK cell cytotoxicity activity test (YAC-1 target cells, MTT) on spleen cells of treated mice; format: in vivo, BALB/c mice; conditions: IFN-γ and IL-2 groups 3×10^5 IU/kg/day, X ± SD
Method: as §1, §2
Mice spleen cells were prepared to 4×10^6/ml as described in section 1.1 above. Target cells YAC-1 were brought to log phase and adjusted to 1×10^5/ml. Using a 96 wells cell culture plate, 100 μl mouse spleen cells and 100 μl culture medium were added to the control well containing only the spleen cells; 100 μl target cells and 100 μl culture medium were added to the control well containing only target cells; 100 μl mouse spleen cells and 100 μl target cells were added to the NK activity assay well. Three parallel sets of the above were prepared per mouse.
Samples were centrifuged at 150 g for 10 minutes to collect the cells. The supernatant was discarded and 50 μl/well MTT of 1 mg/ml was added. The reaction mixture was then shaken for 2 minutes, and incubated at 37° C., 5% CO2 for 4 hours. The supernatant was discarded after centrifugation at 150 g for 10 minutes. 120 μl 40 mM HCl-2-propanol was added and shaken for 3 minutes. An ELISA reader was used to obtain OD570nm of each well referenced at 630 nm.

T lymphocyte [2] = system: T lymphocyte; set-up: species or system BALB/c mice; conditions: mouse, in vivo, ip
anti-SRBC antibody = assay: Sheep Red Blood Cell (SRBC) hemolysis test, anti-SRBC antibody formation; format: in vivo, BALB/c mice; conditions: SRBC on day 12, IFN-γ and IL-2 groups 3×10^5 IU/kg/day, X ± SD
Method: Sheep red blood cells (SRBC) were prepared by collecting blood from cervical vein and put into a sterile flask with glass beads. The flask was shaken for 3 minutes and the blood then mixed with Alsever solution (glucose 2.05 g, NaCl 0.4 g, […] 0.8 g, adjust to 100 ml with distilled water) and stored at 4° C. Immediately before use, samples were centrifuged at 130 g, 5 minutes to collect the SRBC. The cells were washed two times by re-suspension and centrifugation in normal saline. Then the cell pellet was collected by centrifugation at 180 g for 10 minutes and re-suspended in saline to make the final working SRBC suspension, 2% (v/v).
Complement was prepared by adding 10 volumes of fresh Cavy serum into one volume centrifuge packed SRBC, and then gently shaking for 30 minutes at 4° C. The SRBC was removed by centrifugation at 200 g for 10 minutes. 10 volumes of normal saline were added to obtain the working complement solution.
The test substances were administered as described in section 1.1, plus intraperitoneal injection 0.2 ml SRBC per mouse on day 12. On the day after the last test substance administration (day 16), blood was collected from the eye canthus and left at room temperature for one hour for serum exudation. After centrifugation at 200 g for 10 minutes, the serum was diluted by 500 times with normal saline.
To 1 ml diluted mouse serum of each mouse, 0.5 ml SRBC suspension was added. Ice cold. Then 1 ml working complement solution was added and incubated at 37° C. water bath for 10 minutes. Reactions were terminated by ice cold. Samples were then centrifuged at 200 g for 10 minutes to obtain the supernatant.
To 1 ml of this supernatant, 3 ml Drabkin solution was added and left at room temperature for 10 minutes. OD540nm was obtained.
Reference OD540nm was obtained by mixing 0.25 ml SRBC suspension with Drabkin solution to 4 ml and placed at room temperature for 10 minutes before OD540nm was taken. Sample serum index=(OD540nm of test sample[…]reference OD540nm)×500 3. The Effect of Peptides on the Phagocytosis Function of Mononuclear Phagocyte and the Weight of Immune Organ^[8,9].

[3] = immunity organ weight test (thymus gland index, spleen index); format: in vivo, BALB/c mice; conditions: X ± SD
Method: as §1
(§4) One day after the last test substance administration (day 16), the liver, spleen, and thymus gland were separated and blotted dry with filter paper and weighed. The phagocytosis index α was calculated as below: α=(^3√K)(W÷WLS) key: W: body weight WLS: weight of liver plus spleen Thymus gland index(%)=(thymus weight/body weight)×100% Spleen index(%)=(spleen weight/body weight)×100%

T lymphocyte [4] = assay: T lymphocyte IL-2 secretion test (HT-2 cell bioassay of ConA supernatant); format: in vivo, BALB/c mice; conditions: IFN-γ and IL-2 groups 3×10^5 IU/kg/day, X ± SD
Method: as §1, §3
HT-2 cells at log phase were collected by centrifugation at 150 g for 10 minutes, and washed three times with cold Hank's solution by re-suspension and centrifugation. The collected HT-2 cells were re-suspended in RPMI-1640 and incubated at 37° C., 5% CO2 for 30 minutes. The cells were further washed twice with RPMI-1640 by re-suspension and centrifugation, and re-suspended to final concentration of 2×10^5/ml with RPMI-1640.
rIL-2 was diluted to the following concentration with RPMI-1640: 500 IU/ml, 250 IU/ml, 125 IU/ml, 62.5 IU/ml, 31.25 IU/ml, and […].
A 96 well cell culture plate was set up with three parallel wells per combination:
Negative control: 100 μl RPMI-1640+100 μl HT-2 cell suspension
rIL-2 standard: 100 μl rIL-2 solution+100 μl HT-2 cell suspension
Assay well: 100 μl diluted supernatant+100 μl HT-2 cell suspension
The plate was incubated at 37° C., 5% CO2 for 68 hours, then centrifuged at 150 g for 15 minutes and the supernatant removed. 100 μl 0.5 mg/ml MTT in RPMI-1640 without phenolsulfonphthalein was added into each well. After shaking for 3-4 minutes to re-suspend the cells, continue to incubate for another 4 hours. Samples were then centrifuged at 150 g for 15 minutes and the supernatant was removed. To each well, 120 μl 40 mM HCl-2-propanol was added, mixed for 3-4 minutes and OD analyzed at 570 nm, referenced at 630 nm with an ELISA plate reader.
The average OD of the three parallel wells of each dilution was taken and plotted against concentration on a semi-log paper, concentration on the X-axis. The concentration at 50% OD saturation was obtained for both the testing supernatant and rIL-2.

mononuclear phagocyte = assay: carbon particle clearance test, phagocytotic activity of mononuclear phagocyte; format: in vivo, BALB/c mice; set-up: key: α = (cube root of K)×(body weight ÷ liver+spleen weight); conditions: IFN-γ and IL-2 groups 3×10^5 IU/kg/day, X ± SD
Method: On the next day after the last test substance administration (day 16), the mice were injected with […] body weight India ink (5 times dilution with normal saline) from the tail vein.
One minute and five minutes after Indian ink injection, 20 μl blood was obtained from the eye can thus with a heparinized tubing. The blood was mixed with 2 ml 0.1% w/v Na2CO3 and then OD680nm obtained. The outline clear index K was calculated by the following formula: K=(lgA1−lgA2)÷(t2−t1) Key: A1: OD680nm at first minute A2: OD680nm at fifth minute t2: 5 minutes […]
as §4

[5] = peptide 50 μg/kg/day i.p. 15 days
[6] = peptide 0.5 μg/kg/day i.p. 15 days
[7] = peptide 5 μg/kg/day i.p. 15 days
[8] = peptide 5 μg/kg/day i.p. 15 days, IFN-γ and IL-2 groups 3×10^5 IU/kg/day
[9] = peptide 500 μg/kg/day i.p. 15 days
[10] = peptide 0.5 μg/kg/day i.p. 15 days, IFN-γ and IL-2 groups 3×10^5 IU/kg/day
[11] = peptide 50 μg/kg/day i.p. 15 days, IFN-γ and IL-2 groups 3×10^5 IU/kg/day
[12] = peptide 500 μg/kg/day i.p. 15 days, IFN-γ and IL-2 groups 3×10^5 IU/kg/day

Substance | stimulation index (T lymphocyte transformation) (T lymphocyte [1]) | NK cell cytotoxic activity (NK cell activity index) (NK cell; [5]) | activity of T lymphocyte in secreting IFN (T lymphocyte [2]) | anti-SRBC antibody formation (sample serum index) (anti-SRBC antibody; [6]) | anti-SRBC antibody formation (sample serum index) (anti-SRBC antibody; [7]) | anti-SRBC antibody formation (sample serum index) (anti-SRBC antibody; [5]) | weight of thymus gland (thymus gland index) [3, 8] | weight of spleen (spleen index) [3, 9] [%] | NK cell cytotoxic activity (NK cell activity index) (NK cell; [6]) [%] | NK cell cytotoxic activity (NK cell activity index) (NK cell; [7]) [%] | activity of T lymphocyte in secreting IL-2 (T lymphocyte [4]; [6]) | activity of T lymphocyte in secreting IL-2 (T lymphocyte [4]; [7]) [IU] | anti-SRBC antibody formation (sample serum index) (anti-SRBC antibody; [9]) | weight of thymus gland (thymus gland index) [3, 10] | weight of thymus gland (thymus gland index) [3, 11] | NK cell cytotoxic activity (NK cell activity index) (NK cell; [9]) [%] | phagocytotic index (mononuclear phagocyte; [7]) | phagocytotic index (mononuclear phagocyte; [9]) | weight of spleen (spleen index) [3, 10] | weight of thymus gland (thymus gland index) [3, 12]
MATAASSSSL [CMS021] | 1.6 ± 0.1 | 88 ± 12*^@^ % | 143 ± 17*^@^ IU | 57 ± 9*^@ Unit | 82 ± 30*^@ Unit | 94 ± 20*^@^ Unit | 0.20 ± 0.06 % | 0.36 ± 0.04 |  |  |  |  |  |  |  |  |  |  |  | 
LGMEACGIHETTY [CMS012] | 1.6 ± 0.2 | 40 ± 9 % | 86 ± 9 IU |  | 81 ± 22*^@ Unit | 50 ± 14* Unit | 0.27 ± 0.06*^@^ % |  | 77 ± 6 | 85 ± 7 | 59 ± 13 IU | 65 ± 16 | 141 ± 21*^@^ Unit | 0.22 ± 0.06*^ % | 0.26 ± 0.02*^@^ % |  |  |  |  | 
LRVAPEEHPVL [CMS013] |  |  | 154 ± 15*^@^ IU | 7 ± 1* Unit | 93 ± 28*^@ Unit | 70 ± 9*^@ Unit | 0.21 ± 0.05 % | 0.44 ± 0.07 |  |  |  |  | 80 ± 16*^@ Unit |  |  | 84 ± 9 | 6.7 ± 0.2 |  |  | 
VGMGQKDSYV [CMS020] |  |  |  | 10 ± 3* Unit | 89 ± 24*^@ Unit |  | 0.24 ± 0.07*^@^ % |  |  | 91 ± 6 |  | 63 ± 11 | 155 ± 35*^@^ Unit | 0.23 ± 0.05*^@^ % | 0.27 ± 0.03*^@^ % |  |  | 6.4 ± 0.6 | 0.68 ± 0.09*^@^ % | 0.19 ± 0.04 %
Tyr Ser Phe (YSF; listed as Sus scrofa) [CMS022] |  |  | 145 ± 13*^@^ IU |  |  | 110 ± 16*^@^ Unit | 0.25 ± 0.04*^@^ % |  | 73 ± 11 |  | 109 ± 14*^@^ IU |  | 68 ± 31* Unit | 0.21 ± 0.06 % | 0.30 ± 0.03*^@^ % |  |  | 7.4 ± 0.6*^@^ |  | 0.26 ± 0.05*^@^ %
Phe Glu Pro Ser Phe (FEPSF; listed as Sus scrofa) [CMS028] |  |  | 96 ± 13 IU | 18 ± 5* Unit | 121 ± 48*^@^ Unit |  | 0.28 ± 0.06*^@^ % |  | 79 ± 3 |  |  |  |  | 0.20 ± 0.06 % | 0.18 ± 0.04 % | 90 ± 5 |  |  |  | 0.19 ± 0.02 %
